Consider one molecule from patent publication US20070117864A1, “Composition for preventing and treating hepatoma” (Tokyo University of Agr. & Tech. TLO Co., Ltd., priority 2003, published 2007).

Test [1] deals with AH109A cells. As to the kind of experiment: solid tumor growth and metastasis in hepatoma-bearing rats fed ENL-supplemented diets. In kind it is in vivo, rat. The following applies: for Total number of metastasis/group / Hepatoma weight: 21 days; for Hepatoma weight: mean ± SEM of 11 rats. The method, then:
(§1) Male Donryu rats of four weeks old were purchased from NRC Haruna, Gumma, Japan, and were preliminarily fed for 6 days in quintuple cages in a room with a controlled environment with light period of 8:00 to 20:00, room temperature of 22±1° C., and relative humidity of 60±5%. For the first 3 days, the animals were fed ad libitum with a stock pellet diet (CE-2; CLEA Japan, Tokyo), and for the next 3 days, they were fed a basal diet containing 20% milk casein (20C) (Table 1) ad libitum together with tap water in a glass container. Following the completion of this preparatory raising, the rats were divided into three groups (11 animals per group) with equal average body weights of the respective groups were equal, and 1.0×10^7 of AH109A cells suspended in PBS (−) were transplanted in the back of all the rats. From the time immediately after transplantation, in the respective experimental groups, the animals were fed the experimental diets shown in Table 2. During the experimental period, the body weight, food intake and solid tumor size (sum of length, width and height) were measured everyday. On the day that the animals were killed, animals were deprived of experimental diets at 9:00, but freely given water until they were killed 4 hours later. Blood was collected from carotid, and the liver and solid tumors were excised. The collected blood was allowed to stand for approximately 2 hours at room temperature, and then centrifuged for 10 minutes at 3000 rpm (1750×g), 4° C., to obtain serum. This blood serum was frozen and stored at −20° C. The livers and solid tumors were washed with physiological saline, blotted on filter paper, and weighed. Furthermore, feces from the 19th to 21st days after transplantation were collected, and these feces were frozen and stored at −20° C. for the measurement of the amounts of steroids excreted from the body. The length, width and height of the solid tumors were measured, and the sums of these values were used as an index of solid tumor size.

The test system of test [2] is AH109A cells. Briefly: apoptosis of AH109A cells by flow cytometry, Annexin V/PI double staining. In kind it is cell-based, rat. The following applies: for proportion of the fourth quadrant (early stage of apoptosis) / proportion of the second quadrant (secondary necrosis) / proportion of the third quadrant (live cells): 3 hours. As for the experimental part:
The analysis was performed using an ANNEXIN V FITC kit (IMMUNOTECH, Marseille, France). AH109A cells were inoculated at the density of 1×10^6 cells with 3 ml of the experimental medium in a dish with 6 cm in diameter (NUNC), and the cells were cultured for 0, 3 and 6 hours in a CO2 incubator at 37° C. The AH109A cells cultured under the respective treatment conditions were recovered, centrifuged for 5 minutes at 4° C. at 1000 rpm (90×g), and washed once with PBS (−). Subsequently, the cells was suspended in 490 μl of a binding buffer, and 5 μl of a PI solution and 5 μl of ANNEXIN V FITC, and these substances were gently mixed. The cells were stained by allowing the preparation to stand quietly for 10 minutes on ice with the light blocked. The apoptosis of the cells was analyzed using a flow cytometer (EPICS ELITE ESP; Beckman-Coulter, Hialeah, Fla., USA).

Test [3] in a line: food intake, body weight gain and liver weight in hepatoma-bearing rats. The class given is in vivo, rat. Particulars: for Body weight gain: mean ± SEM of 11 rats. The method, then: as §1, with “body.” for “body. The length, width and height of the solid tumors were measured, and the sums of these values were used as an index of solid tumor size.”
Test [4] deals with AH109A cells. Briefly: cell cycle analysis of hepatoma cells by PI staining and flow cytometry. In kind it is cell-based, rat. The method, then: The effects of 6.25 μM and 12.5 μM ENL on the cell cycle of AH109A cells were analyzed. The AH109A cells were inoculated into a 6-well plate (NUNC) at the density of 2.5×10^5 cells per well, and the cells were cultured for 0, 24 and 48 hours at 37° C. in a CO2 incubator. The AH109A cells cultured under the respective treatment conditions were recovered in 2-ml sampling tubes (Nippon Genetex, Tokyo); these cells were centrifuged for 5 minutes at 1000 rpm (190×g), 4° C., and then washed twice with PBS (−). Subsequently, 300 μl of a PI solution (1 mg propidium iodide (SIGMA)/20 ml 0.1% Triton X-100, 0.1% sodium citrate (Wako Pure Chemical Industries)) was added, and the preparation was dyed by allowing the preparation to kept quietly on ice for 30 minutes with the light blocked. The cell cycle was analyzed with a flow cytometer (EPICS ELITE ESP; Beckman-Coulter, Hialeah, Fla., USA).

The mark [5] stands for this setting: ENL treatment for 24 hours, versus 0 μM control.

Each structure is given as a SMILES string. Marks after values point to notes of the source that are not given here.

Turning to `O=C1OCC(Cc2cccc(O)c2)C1Cc1cccc(O)c1` (stereo not shown) [Enterolactone, enterolactone], the “solid tumor sizes (sum of length, width and height)” value in the test with AH109A cells [1] (100 ppm ENL diet, 7th, 8th and 18th to 21 days after transplantation, versus control diet) was “significant suppression”. Moreover, in the test with AH109A cells [1] (ENL diet groups (10 and 100 ppm)), the “metastasis over 21 days following transplantation” value was “no metastasis was observed”. For the same molecule, in the test on AH109A cells [1] (both ENL ingestion groups versus control), the solid tumor weight entry is “significant decrease”. For the same molecule, in the test with AH109A cells [1] (diet 10 ppm), the “Total number of metastasis/group” value amounted to 0 and the Hepatoma weight was 3.4 ± 1^b g/rat. Further, in the test with AH109A cells [1] (diet 100 ppm), the “Total number of metastasis/group” value is listed as 0 and the Hepatoma weight is 1.1 ± 0.2^b g/rat. Moreover, in the test with AH109A cells [2] (6.25 μM ENL), the “proportion of the fourth quadrant (early stage of apoptosis)” value is on record as 8.4%, the “proportion of the second quadrant (secondary necrosis)” value was determined as 2.8% and the “proportion of the third quadrant (live cells)” value is listed as 88.1%. In addition, in the test with AH109A cells [2] (12.5 μM ENL), the “proportion of the fourth quadrant (early stage of apoptosis)” value is given as 11.4%, the “proportion of the second quadrant (secondary necrosis)” value was 2.3% and the “proportion of the third quadrant (live cells)” value is listed as 86.1%. Also, in the test with AH109A cells [2] (6.25 and 12.5 μM ENL), the “proportion of cells in the early stage of apoptosis” value was “increased”, the “proportion of cells showing secondary necrosis” value is reported as “increased to some extent” and the “proportion of live cells” value was “decreased in a dose-dependent manner”. In addition, in test [3] (100 ppm ENL ingestion group versus control), the body weight entry is “significant increase”. Besides, the Body weight gain in test [3] (diet 10 ppm) is given as 158 ± 8^a g/21 days. Further, the Body weight gain in test [3] (diet 100 ppm) is reported as 171 ± 4^b g/21 days. The “effect on the cell cycle” value in the test with AH109A cells [4] (ENL treatment for 0 hours, various concentrations) is “no effect”. For the same molecule, in the test with AH109A cells [4] (setting [5]), the “proportion of the G1 phase” value is reported as “increase” and the “proportion of the S phase” value is reported as “decrease”.
